Measurements taken from paper PMC10518257 (Nature Cancer, 2023).
“And” between values parts separate entries of the source, which are not always exact repeats. Equal values may be shown once.

How the values were obtained:
Ba/F3-RET^M918T = experiment: Growth inhibition assay in Ba/F3 cells (CellTiter-Glo, 72 h); assay type: cell-based; settings: Mus musculus, BaF3, 72 h, Ba/F3-RET^M918T, CellTiter-Glo, 72 h; read-out: GI50 value (Mean ± SD)
LUAD-0087AS2 cells = experiment: Growth inhibition (alamarBlue, 96 h); assay type: cell-based, human; settings: for raw viability signal (Source Data Fig. 3b-c): LUAD-0087AS2, replicate sets
ECLC5B cells = experiment: Growth inhibition (alamarBlue, 96 h); assay type: cell-based, human; settings: ECLC5B; for raw viability signal (Source Data Fig. 3b-c): replicates
TT cells = experiment: Growth inhibition (alamarBlue, 96 h); assay type: cell-based, human; settings: for raw viability signal (Source Data Fig. 3b-c): replicate sets
[1] = Homo sapiens, read-out: IC50 for Inhibition of Growth (95% CI), alamarBlue, 96 h

SMILES: COc1cc2c(Nc3ccc(Br)cc3F)ncnc2cc1OCC1CCN(C)CC1 [Vandetanib]
- GI50 (Ba/F3-RET^M918T): 39.9 ± 15.2 nM
- IC50 (LUAD-0087AS2 cells; Homo sapiens, read-out: IC50 for Inhibition of Growth (95% CI), LUAD-0087AS2, alamarBlue, 96 h): 264 nM
- raw viability signal (Source Data Fig. 3b-c) (LUAD-0087AS2 cells; 0.01 nM): 12332.1 and 13934.5 and 13930.1
- raw viability signal (Source Data Fig. 3b-c) (LUAD-0087AS2 cells; 0.1 nM): 10316.9 and 14234.5 and 13979.9
- raw viability signal (Source Data Fig. 3b-c) (LUAD-0087AS2 cells; 1 nM): 14707.2 and 14551.9 and 13357
- raw viability signal (Source Data Fig. 3b-c) (LUAD-0087AS2 cells; 10 nM): 9639.26 and 14042.7
- raw viability signal (Source Data Fig. 3b-c) (LUAD-0087AS2 cells; 100 nM): 8268.62 and 14329.9 and 11925.1
- raw viability signal (Source Data Fig. 3b-c) (LUAD-0087AS2 cells; 1000 nM): 3107.74 and 4188.25 and 2159.6 and 1975.84
- raw viability signal (Source Data Fig. 3b-c) (LUAD-0087AS2 cells; 10000 nM): 1739.1 and 865.962 and 878.418 and 892.669
- raw viability signal (Source Data Fig. 3b-c) (ECLC5B cells; 0.01 nM): 9731.41 and 6613.39 and 26019.7
- raw viability signal (Source Data Fig. 3b-c) (ECLC5B cells; 0.1 nM): 10719.9 and 7303.21 and 26332.1
- raw viability signal (Source Data Fig. 3b-c) (ECLC5B cells; 1 nM): 7568.32 and 25576
- raw viability signal (Source Data Fig. 3b-c) (ECLC5B cells; 10 nM): 10376.5 and 7240.47 and 24146.6
- raw viability signal (Source Data Fig. 3b-c) (ECLC5B cells; 100 nM): 8370.2 and 5534.52 and 20059.6
- raw viability signal (Source Data Fig. 3b-c) (ECLC5B cells; 1000 nM): 1326.74 and 1175.68 and 3727.83
- raw viability signal (Source Data Fig. 3b-c) (ECLC5B cells; 10000 nM): 1185.45 and 1144.21 and 2595.71
- IC50 (ECLC5B cells; [1]): 248 nM
- raw viability signal (Source Data Fig. 3b-c) (TT cells; 0.01 nM): 24130.4 and 28596.3 and 33849.7 and 15452.6
- raw viability signal (Source Data Fig. 3b-c) (TT cells; 0.1 nM): 23355.5 and 28594.1 and 36565.2
- raw viability signal (Source Data Fig. 3b-c) (TT cells; 1 nM): 22374.7 and 27607.6 and 35010.1 and 13701.7
- raw viability signal (Source Data Fig. 3b-c) (TT cells; 10 nM): 16858.1 and 26132.6 and 31759.9 and 13240.5 and 11997.4
- raw viability signal (Source Data Fig. 3b-c) (TT cells; 100 nM): 9840.2 and 25256.2 and 32238.5 and 11048.8 and 6020.05
- raw viability signal (Source Data Fig. 3b-c) (TT cells; 1000 nM): 9436.58 and 12629.1 and 19662.7 and 4747.88 and 2242.82
- raw viability signal (Source Data Fig. 3b-c) (TT cells; 10000 nM): 6954.01 and 10117.3 and 4217.75 and 1470.42
- IC50 (TT cells; [1]): 90 nM
